In patent US5767291A, “Phenyl heterocycles as cox-2 inhibitors” (Merck Frosst Canada, Inc., priority 1996, dated 1998):
Like-named read-outs stand apart in the source and are kept apart here.

Biological target: T1, cyclooxygenase-2 (COX-2) (Homo sapiens, UniProt P35354)
T1 construct: human osteosarcoma 143 cells (which specifically express cyclooxygenase-2); endogenous in cells; host or cells: human osteosarcoma 143 cells (whole cells, and microsomes prepared from them)
T1 sequence (P35354 18-604): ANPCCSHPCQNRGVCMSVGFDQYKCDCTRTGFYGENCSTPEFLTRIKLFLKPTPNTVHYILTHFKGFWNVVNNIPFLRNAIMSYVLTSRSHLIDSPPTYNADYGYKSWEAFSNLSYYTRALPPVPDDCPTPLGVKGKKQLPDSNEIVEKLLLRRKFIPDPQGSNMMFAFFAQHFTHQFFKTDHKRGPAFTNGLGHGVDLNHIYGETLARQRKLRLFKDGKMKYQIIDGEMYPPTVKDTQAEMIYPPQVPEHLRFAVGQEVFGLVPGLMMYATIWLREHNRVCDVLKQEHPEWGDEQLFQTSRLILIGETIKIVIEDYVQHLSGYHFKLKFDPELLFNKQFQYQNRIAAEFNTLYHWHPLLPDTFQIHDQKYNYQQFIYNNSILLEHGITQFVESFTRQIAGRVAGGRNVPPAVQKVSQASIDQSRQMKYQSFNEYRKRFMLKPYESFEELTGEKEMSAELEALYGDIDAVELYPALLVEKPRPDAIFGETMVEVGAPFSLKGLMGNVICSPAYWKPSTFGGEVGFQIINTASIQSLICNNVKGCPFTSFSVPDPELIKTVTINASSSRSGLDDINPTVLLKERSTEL
Experiment: Whole cell cyclooxygenase assay, COX-2 (PGE2 synthesis in response to arachidonic acid, radioimmunoassay), human osteosarcoma 143 cells
Type: cell-based
Conditions: read-out: Whole Cells COX-2 % inhib.; for inhibition at 0.01 µM: 10 nM; for inhibition at 0.1 µM: 100 nM; for inhibition at 0.08 µM: 80 nM; for inhibition at 0.04 µM: 40 nM
Method: Compounds were tested as inhibitors of cyclooxygenase activity in whole cell and microsomal cyclooxygenase assays. Both of these assays measured prostaglandin E2 (PGE2) synthesis in response to arachidonic acid, using a radioimmunoassay. Cells used for whole cell assays, and from which microsomes were prepared for microsomal assays, were human osteosarcoma 143 cells (which specifically express cyclooxygenase-2) and human U-937 cells (which specifically express cyclooxygenase-1). In these assays, 100% activity is defined as the difference between prostaglandin E2 synthesis in the absence and presence of arachidonate addition.

inhibition at 0.01 µM [%]	inhibition at 0.02 µM (20 nM) [%]	inhibition at 0.16 µM (160 nM) [%]	inhibition at 0.04 µM [%]	SMILES	further results
41	–	–	–	CS(=O)(=O)c1ccc(-c2cnsc2-c2ccc(F)cc2)cc1 [Example 8, 4-(4-(Methylsulfonyl)phenyl)-5-(4-fluorophenyl)-isothiazole]	inhibition at 0.1 µM: 89%
–	–	–	–	CC1(C)OC(=O)C(c2ccc(F)cc2)=C1c1ccc(S(C)(=O)=O)cc1 [Example 12, 5,5-Dimethyl-3-(4-fluorophenyl)-4-(4-methylsulfonylphenyl)-2-(5H)-furanone]	inhibition at 0.1 µM: 54%
–	39	95	–	CS(=O)(=O)c1ccc(C2=C(c3ccc(F)cc3F)C(=O)OC2)cc1 [Example 15, 3-(2,4-Difluorophenyl)-4-(4-(methylsulfonyl)phenyl)-2-(5H)-furanone]	inhibition at 0.08 µM: 76%
–	41	85	50	CS(=O)(=O)c1ccc(C2=C(c3ccc(F)c(F)c3)C(=O)OC2)cc1 [Example 16, 3-(3,4-Difluorophenyl)-4-(4-(methylsulfonyl)phenyl)-2-(5H)-furanone]	–
–	–	77	41	CS(=O)(=O)c1ccc(C2=C(c3c(F)cccc3F)C(=O)OC2)cc1 [Example 17, 3-(2,6-Difluorophenyl)-4-(4-(methylsulfonyl)phenyl)-2-(5H)-furanone]	–
–	–	58	24	CS(=O)(=O)c1ccc(C2=C(c3cc(F)ccc3F)C(=O)OC2)cc1 [Example 18, 3-(2,5-Difluorophenyl)-4-(4-(methylsulfonyl)phenyl)-2-(5H)-furanone]	–
–	–	59	21	CS(=O)(=O)c1ccc(C2=C(c3cc(F)cc(F)c3)C(=O)OC2)cc1 [Example 19, 3-(3,5-Difluorophenyl)-4-(4-(methylsulfonyl)phenyl)-2-(5H)-furanone]	–
70	–	–	91	CS(=O)(=O)c1ccc(C2=C(c3ccc(Br)cc3)C(=O)OC2)cc1 [Example 20, 3-(4-Bromophenyl)-4-(4-(methylsulfonyl)phenyl)-2-(5H)-furanone]	–
50	–	–	94	CS(=O)(=O)c1ccc(C2=C(c3ccc(Cl)cc3)C(=O)OC2)cc1 [Example 21, 3-(4-Chlorophenyl)-4-(4-(methylsulfonyl)phenyl)-2-(5H)-furanone]	–
–	39	98	–	COc1ccc(C2=C(c3ccc(S(C)(=O)=O)cc3)COC2=O)cc1 [Example 22, 3-(4-Methoxyphenyl)-4-(4-(methylsulfonyl)phenyl)-2-(5H)-furanone]	–
–	–	–	–	CS(=O)(=O)c1ccc(C2=C(c3ccccc3)C(=O)OC2)cc1 [Example 23, 3-(Phenyl)-4-(4-(methylsulfonyl)phenyl)-2-(5H)-furanone]	inhibition at 0.02 µM: 50%; inhibition at 0.16 µM: 88%
–	–	78	43	CS(=O)(=O)c1ccc(C2=C(c3ccccc3Cl)C(=O)OC2)cc1 [Example 24, 3-(2-Chlorophenyl)-4-(4-(methylsulfonyl)phenyl)-2-(5H)-furanone]	–
–	–	40	–	CS(=O)(=O)c1ccc(C2=C(c3ccc(F)cc3Br)C(=O)OC2)cc1 [Example 25, 3-(2-Bromo-4-fluorophenyl)-4-(4-(methylsulfonyl)phenyl)-2-(5H)-furanone]	–
–	–	39	–	CS(=O)(=O)c1ccc(C2=C(c3ccc(Cl)cc3Br)C(=O)OC2)cc1 [Example 26, 3-(2-Bromo-4-Chlorophenyl)-4-(4-(methylsulfonyl)phenyl)-2-(5H)-furanone]	inhibition at 0.08 µM: 27%
–	38	97	–	CS(=O)(=O)c1ccc(C2=C(c3ccc(Cl)cc3F)C(=O)OC2)cc1 [Example 27, 3-(4-Chloro-2-fluorophenyl)-4-(4-(methylsulfonyl)phenyl)-2-(5H)-furanone]	–
–	48	69	–	CS(=O)(=O)c1ccc(C2=C(c3ccc(F)c(Br)c3)C(=O)OC2)cc1 [Example 28, 3-(3-Bromo-4-fluorophenyl)-4-(4-(methylsulfonyl)phenyl)-2-(5H)-furanone]	–

inhibition at 0.01 µM [%]	inhibition at 0.02 µM (20 nM) [%]	inhibition at 0.16 µM (160 nM) [%]	inhibition at 0.04 µM [%]	SMILES	further results
–	78	85	–	CS(=O)(=O)c1ccc(C2=C(c3cccc(Cl)c3)C(=O)OC2)cc1 [Example 29, 3-(3-Chlorophenyl)-4-(4-(methylsulfonyl)phenyl)-2-(5H)-furanone]	–
–	–	30	–	CS(=O)(=O)c1ccc(C2=C(c3ccc(F)cc3Cl)C(=O)OC2)cc1 [Example 30, 3-(2-Chloro-4-fluorophenyl)-4-(4-(methylsulfonyl)phenyl)-2-(5H)-furanone]	–
–	49	87	–	CS(=O)(=O)c1ccc(C2=C(c3ccc(Cl)cc3Cl)C(=O)OC2)cc1 [Example 31, 3-(2,4-Dichlorophenyl)-4-(4-(methylsulfonyl)phenyl)-2-(5H)-furanone]	–
73	–	–	92	CS(=O)(=O)c1ccc(C2=C(c3ccc(Cl)c(Cl)c3)C(=O)OC2)cc1 [Example 32, 3-(3,4-Dichlorophenyl)-4-(4-(methylsulfonyl)phenyl)-2-(5H)-furanone]	inhibition at 0.005 µM (5 nM): 43%; inhibition at 0.08 µM: 99%
–	–	6	–	CS(=O)(=O)c1ccc(C2=C(c3c(Cl)cccc3Cl)C(=O)OC2)cc1 [Example 33, 3-(2,6-Dichlorophenyl)-4-(4-(methylsulfonyl)phenyl)-2-(5H)-furanone]	–
30	–	102	80	CS(=O)(=O)c1ccc(C2=C(c3ccc(F)c(Cl)c3)C(=O)OC2)cc1 [Example 34, 3-(3-Chloro-4-fluorophenyl)-4-(4-(methylsulfonyl)phenyl)-2-(5H)-furanone]	–
–	32	83	57	CS(=O)(=O)c1ccc(C2=C(c3ccc(C(F)(F)F)cc3)C(=O)OC2)cc1 [Example 35, 3-(4-Trifluoromethylphenyl)-4-(4-(methylsulfonyl)phenyl)-2-(5H)-furanone]	–
11	–	89	50	COc1ccc(C2=C(c3ccc(S(C)(=O)=O)cc3)COC2=O)cc1F [Example 36, 3-(3-Fluoro-4-methoxyphenyl)-4-(4-(methylsulfonyl)phenyl)-2-(5H)-furanone]	–
53	–	93	82	COc1ccc(C2=C(c3ccc(S(C)(=O)=O)cc3)COC2=O)cc1Cl [Example 37, 3-(3-Chloro-4-methoxyphenyl)-4-(4-(methylsulfonyl)phenyl)-2-(5H)-furanone]	–
25	–	88	63	COc1ccc(C2=C(c3ccc(S(C)(=O)=O)cc3)COC2=O)cc1Br [Example 38, 3-(3-Bromo-4-methoxyphenyl)-4-(4-(methylsulfonyl)phenyl)-2-(5H)-furanone]	–
17	–	84	–	CS(=O)(=O)c1ccc(C2=C(c3ccccc3F)C(=O)OC2)cc1 [Example 39, 3-(2-Fluorophenyl)-4-(4-(methylsulfonyl)phenyl)-2-(5H)-furanone]	–
43	–	96	72	CSc1ccc(C2=C(c3ccc(S(C)(=O)=O)cc3)COC2=O)cc1 [Example 40, 3-(4-Methylthiophenyl)-4-(4-(methylsulfonyl)phenyl)-2-(5H)-furanone]	–
–	10	44	–	CS(=O)(=O)c1ccc(C2=C(c3c(F)cccc3Cl)C(=O)OC2)cc1 [Example 42, 3-(2-Chloro-6-fluorophenyl)-4-(4-(methylsulfonyl)phenyl)-2-(5H)-furanone]	–
78	–	–	101	Cc1ccc(C2=C(c3ccc(S(C)(=O)=O)cc3)COC2=O)cc1Br [Example 43, 3-(3-Bromo-4-methylphenyl)-4-(4-(methylsulfonyl)phenyl)-2-(5H)-furanone]	–
–	14	106	55	CS(=O)(=O)c1ccc(C2=C(c3ccc(Br)cc3F)C(=O)OC2)cc1 [Example 44, 3-(4-Bromo-2-fluorophenyl)-4-(4-(methylsulfonyl)phenyl)-2-(5H)-furanone]	–
16	–	101	61	CS(=O)(=O)c1ccc(C2=C(c3ccc(Br)c(Br)c3)C(=O)OC2)cc1 [Example 45, 3-(3,4-Dibromophenyl)-4-(4-(methylsulfonyl)phenyl)-2-(5H)-furanone]	–
